Reference: patent US9616003B2 (priority 2012, dated 2017)

Columns and labels:
[1] = 1/16 solution, namely 0.75% solution (nontoxic dosage), and further dilution
Protocol: (§1) The cytotoxicity of the obtained solution is tested by in vitro cell culture (in the gingiva and periodontal ligament cells) studies.

[2] = system: periodontal ligament cells
Protocol: (§2) 12% stock solution is prepared from boric acid (12 g boric acid/100 ml distilled water). ½, ¼, ⅛, 1/16, 1/32, 1/64, 1/128 dilutions are prepared from this solution. All these processes are carried out in laminar flow cabin II. Solutions are sterilized by filters with a sieve size of 0.22 μm. The pH of the prepared boric acid solution must be 4.9.
as §1

[3] = system: gingiva cells
Protocol: as §2, §1

[4] = system: chronic periodontitis patients; details: boric acid 0.75%
[5] = prior art statement; cited from earlier work

| Structure (SMILES) | antibacterial features [1] | viability of the cells [2] | viability of the cells [3] | clinical periodontal parameters ([4]; compared to normal saline (control) and chlorhexidine groups) | side effects ([4]; three-month follow up of enrolled patients) | toxicity in cellular level [5] |
| --- | --- | --- | --- | --- | --- | --- |
| OB(O)O [boric acid] | maintains its antibacterial features even if it is diluted more | diminish the viability of the cells until a dilution of 1/16 | diminish the viability of the cells until a dilution of 1/16 | better in clinical periodontal parameters compared to normal saline (control) and chlorhexidine groups | no side effects | – |
| [H]/N=C(\N/C(=N/[H])NCCCCCCNC(=N)NC(=N)Nc1ccc(Cl)cc1)Nc1ccc(Cl)cc1 [chlorhexidine] | – | – | – | – | – | toxic in cellular level |
